Data on 3 compounds can be found in ChEMBL document CHEMBL4020759, “Sulfoximines as ATR inhibitors: Analogs of VE-821” (2017).

Calls of active or inactive are those of the source. No cut-off for these calls is given here.

Test [1] concerns the target Serine/threonine-protein kinase ATR (Homo sapiens) (UniProt Q13535). Kind of test: Inhibition of ATR in human U2OS cells assessed as reduction in hydroxyurea-induced Chk-1 phosphorylation at Ser345 residue by measuring ratio of GAPDH level to phosphorylated Chk-1 level at 3 uM preincubated for 1 hr followed by hydroxyurea challenge measured after 2 hrs by Western blot analysis. The test is classed as cell-based. A general note: A western blot detects proteins with antibodies after separation by electrophoresis.

Test [2] deals with Serine-protein kinase ATM (Homo sapiens) (UniProt Q13315). In words: Inhibition of ATM in human U2OS cells assessed as reduction in etoposide-induced Chk-2 phosphorylation at Thr68 residue at 10 uM preincubated for 1 hr followed by etoposide challenge measured after 20 mins by Western blot analysis. It counts as cell-based.
The target is the same in test [3]. In words: Inhibition of ATM in human U2OS cells assessed as reduction in hydroxyurea-induced H2AX phosphorylation at Ser139 residue at 3 to 10 uM preincubated for 1 hr followed by hydroxyurea challenge measured after 2 hrs by Western blot analysis. The test is classed as cell-based.
Test [4] addresses Serine/threonine-protein kinase ATR (Homo sapiens) (UniProt Q13535). Kind of test: Inhibition of ATR in human U2OS cells assessed as reduction in etoposide-induced Chk-1 phosphorylation at Ser345 residue at 10 uM preincubated for 1 hr followed by etoposide challenge measured after 20 mins by Western blot analysis. The test is classed as cell-based.
Test [5] has the same target. Kind of test: Inhibition of ATR in human Ramos cells assessed as reduction in […] at 10 uM after 48 hrs by Western blot analysis. The test is classed as cell-based.
Test [6] shares this target. In words: Inhibition of ATR in human U2OS cells assessed as reduction in hydroxyurea-induced Chk-1 phosphorylation at Ser345 residue by measuring ratio of GAPDH level to phosphorylated Chk-1 level at 10 uM preincubated for 1 hr followed by hydroxyurea challenge measured after 2 hrs by Western blot analysis. It counts as cell-based.
Test [7] deals with Ramos. In words: Induction of apoptosis in human Ramos cells assessed as increase PARP-1 cleavage at 10 uM after 48 hrs by Western blot analysis. It counts as functional, cell-based.
Test [8] addresses Serine-protein kinase ATM (Homo sapiens) (UniProt Q13315). In words: Inhibition of ATM in human U2OS cells assessed as reduction in hydroxyurea-induced Chk-2 phosphorylation at Thr68 residue at 10 uM preincubated for 1 hr followed by hydroxyurea challenge measured after 1 hr by Western blot analysis. It counts as cell-based.
For test [9], the target named is Serine/threonine-protein kinase ATR (Homo sapiens) (UniProt Q13535). In words: Inhibition of ATR in human U2OS cells assessed as reduction in hydroxyurea-induced H2AX phosphorylation at Ser139 residue at 3 to 10 uM preincubated for 1 hr followed by hydroxyurea challenge measured after 2 hrs by Western blot analysis. It counts as cell-based.
Test [10] has the same target. Kind of test: Inhibition of ATR in human U2OS cells assessed as reduction in hydroxyurea-induced Chk-1 phosphorylation at Ser345 residue preincubated for 1 hr followed by hydroxyurea challenge measured after 2 hrs by Western blot analysis. The test is classed as cell-based.
Test [11] shares this target. Kind of test: Inhibition of ATR in human U2OS cells assessed as reduction in hydroxyurea-induced Chk-1 phosphorylation at Ser345 residue at 10 uM preincubated for 1 hr followed by hydroxyurea challenge measured after 1 hr by Western blot analysis. The test is classed as cell-based.

Chain of Serine/threonine-protein kinase ATR (Homo sapiens) (Q13535 whole entry, looked up): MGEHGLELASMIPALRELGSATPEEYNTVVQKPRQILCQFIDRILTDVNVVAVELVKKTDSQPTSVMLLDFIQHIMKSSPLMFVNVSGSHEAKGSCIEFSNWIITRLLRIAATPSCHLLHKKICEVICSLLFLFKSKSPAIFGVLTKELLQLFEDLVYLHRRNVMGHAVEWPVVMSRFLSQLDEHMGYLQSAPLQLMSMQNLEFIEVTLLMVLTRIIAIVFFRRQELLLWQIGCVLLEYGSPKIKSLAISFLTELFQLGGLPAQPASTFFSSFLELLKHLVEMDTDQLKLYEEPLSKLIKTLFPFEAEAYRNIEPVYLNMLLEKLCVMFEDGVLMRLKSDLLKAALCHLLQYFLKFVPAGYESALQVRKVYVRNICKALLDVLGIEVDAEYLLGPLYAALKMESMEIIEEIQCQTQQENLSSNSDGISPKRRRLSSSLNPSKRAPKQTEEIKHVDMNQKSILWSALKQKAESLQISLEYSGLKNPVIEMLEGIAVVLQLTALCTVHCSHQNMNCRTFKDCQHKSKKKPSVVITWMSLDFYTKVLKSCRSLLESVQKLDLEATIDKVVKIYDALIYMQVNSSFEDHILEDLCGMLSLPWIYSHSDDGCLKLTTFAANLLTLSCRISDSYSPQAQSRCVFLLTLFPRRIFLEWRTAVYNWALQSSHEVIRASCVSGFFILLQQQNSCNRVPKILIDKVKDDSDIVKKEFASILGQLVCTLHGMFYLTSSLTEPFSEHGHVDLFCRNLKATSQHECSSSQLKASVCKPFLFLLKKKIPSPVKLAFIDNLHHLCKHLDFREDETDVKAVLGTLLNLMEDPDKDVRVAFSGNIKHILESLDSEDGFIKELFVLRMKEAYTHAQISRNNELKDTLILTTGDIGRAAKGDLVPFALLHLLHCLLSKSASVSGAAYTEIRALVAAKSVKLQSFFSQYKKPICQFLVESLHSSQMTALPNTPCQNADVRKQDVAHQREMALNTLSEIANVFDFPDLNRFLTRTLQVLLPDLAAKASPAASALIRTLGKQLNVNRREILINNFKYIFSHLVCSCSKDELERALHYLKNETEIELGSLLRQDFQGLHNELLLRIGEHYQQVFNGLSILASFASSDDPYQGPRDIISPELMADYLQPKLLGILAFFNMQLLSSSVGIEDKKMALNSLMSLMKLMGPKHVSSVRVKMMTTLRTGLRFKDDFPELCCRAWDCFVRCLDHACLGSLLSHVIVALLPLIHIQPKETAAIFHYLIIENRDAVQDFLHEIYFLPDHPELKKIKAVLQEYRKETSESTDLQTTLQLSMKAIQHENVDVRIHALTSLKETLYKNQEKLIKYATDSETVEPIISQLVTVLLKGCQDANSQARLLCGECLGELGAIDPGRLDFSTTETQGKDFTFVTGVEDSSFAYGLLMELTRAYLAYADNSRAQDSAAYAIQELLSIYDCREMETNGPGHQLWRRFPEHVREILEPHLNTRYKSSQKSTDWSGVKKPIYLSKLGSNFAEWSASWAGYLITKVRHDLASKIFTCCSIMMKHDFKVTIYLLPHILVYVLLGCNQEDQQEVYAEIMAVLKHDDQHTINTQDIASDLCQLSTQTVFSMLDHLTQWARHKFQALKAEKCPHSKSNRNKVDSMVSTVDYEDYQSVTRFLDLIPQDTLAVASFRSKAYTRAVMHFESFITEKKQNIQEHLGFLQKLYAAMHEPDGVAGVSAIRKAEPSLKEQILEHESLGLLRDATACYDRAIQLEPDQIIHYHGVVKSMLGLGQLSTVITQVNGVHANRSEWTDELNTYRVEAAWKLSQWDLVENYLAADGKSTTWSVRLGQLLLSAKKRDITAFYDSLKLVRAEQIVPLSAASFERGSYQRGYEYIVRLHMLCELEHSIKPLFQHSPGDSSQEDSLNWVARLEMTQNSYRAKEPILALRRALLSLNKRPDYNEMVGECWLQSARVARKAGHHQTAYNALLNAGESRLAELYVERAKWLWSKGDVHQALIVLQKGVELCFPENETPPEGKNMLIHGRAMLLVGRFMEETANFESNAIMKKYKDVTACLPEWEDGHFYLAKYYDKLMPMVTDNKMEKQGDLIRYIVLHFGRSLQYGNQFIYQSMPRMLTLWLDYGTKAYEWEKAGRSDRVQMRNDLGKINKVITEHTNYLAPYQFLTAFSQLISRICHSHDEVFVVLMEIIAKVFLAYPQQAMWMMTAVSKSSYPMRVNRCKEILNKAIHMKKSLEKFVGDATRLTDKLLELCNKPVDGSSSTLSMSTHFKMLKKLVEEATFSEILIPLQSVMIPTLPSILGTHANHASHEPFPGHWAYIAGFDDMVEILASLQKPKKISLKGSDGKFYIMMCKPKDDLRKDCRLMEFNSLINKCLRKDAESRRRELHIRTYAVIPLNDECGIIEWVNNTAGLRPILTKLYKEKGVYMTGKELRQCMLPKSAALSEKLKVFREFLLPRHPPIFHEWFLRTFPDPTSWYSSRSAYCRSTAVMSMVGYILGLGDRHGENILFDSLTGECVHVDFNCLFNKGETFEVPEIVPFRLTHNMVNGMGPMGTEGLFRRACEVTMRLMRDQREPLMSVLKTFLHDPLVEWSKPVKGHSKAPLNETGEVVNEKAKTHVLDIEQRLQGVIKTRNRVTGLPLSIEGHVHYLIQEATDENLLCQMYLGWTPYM

Regarding `CS(=O)(=O)c1ccc(-c2cnc(N)c(C(=O)Nc3ccccc3)n2)cc1`, the Ratio in [1] stood at 13; in test [6], 16.3. The inhibition entry in [2] and in test [3] was “inactive” throughout. Moreover, the inhibition entry in [4] and in [5] was “Active” throughout. Further, the outcome in [7] was Active.

Regarding `CS(=N)(=O)c1ccc(-c2cnc(N)c(C(=O)Nc3ccccc3)n2)cc1` (centres undefined), the inhibition result in [8], in test [2] and in test [3] was “inactive” each time. The Ratio in test [1] amounted to 28.3; in test [6], 21.1. For the same compound, the inhibition result in test [9] and in test [10] was “Dose-dependent effect” in each case. In addition, the inhibition result in [4], in [5] and in [11] was “Active” each time. Also, in [7], the outcome was Active.

On to `CN=S(C)(=O)c1ccc(-c2cnc(N)c(C(=O)Nc3ccccc3)n2)cc1` (centres undefined), for which the inhibition entry in test [8], in test [2] and in test [3] was “inactive” each time. Also, the Ratio in test [1] was determined as 46.1; in test [6], 36.4. Moreover, the inhibition entry in test [9] and in test [10] was “Dose-dependent effect” each time. The inhibition result in test [4], in test [5] and in test [11] was “Active” throughout. Further, the outcome in test [7] was Active.
